In patent US5744320A (priority 1995, dated 1998):

Experiments:
[1] = target: T1, Firefly Luciferase (Photinus pyralis, UniProt P08659, K549A/L550V/N119G/N50D/S548I); assay: biochemical; assay type: biochemical
T1 construct: host or cells: Chinese hamster ovary (CHO) cells, transient transfection, cleared lysate

[2] = target: T2, Renilla Luciferase (Renilla reniformis, UniProt P27652); assay: Quenching of the luminescent reaction of Renilla luciferase by RLQ reagents (Table 3); assay type: biochemical
T2 sequence (P27652 1-311): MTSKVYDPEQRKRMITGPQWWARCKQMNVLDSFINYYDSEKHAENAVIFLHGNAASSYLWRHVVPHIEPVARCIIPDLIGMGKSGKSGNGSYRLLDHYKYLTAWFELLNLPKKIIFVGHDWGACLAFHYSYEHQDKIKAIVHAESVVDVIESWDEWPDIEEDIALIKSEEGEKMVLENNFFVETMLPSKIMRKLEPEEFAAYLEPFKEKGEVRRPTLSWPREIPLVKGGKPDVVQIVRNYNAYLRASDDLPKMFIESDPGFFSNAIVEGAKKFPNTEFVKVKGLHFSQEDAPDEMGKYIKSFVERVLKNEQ
Procedure: Numerous chemical compounds were tested individually and in combination for their ability to rapidly quench luciferase catalyzed luminescent reactions. Table 1 and Table 3 present the potency of quenching firefly and Renilla luciferases, respectively, for representative concentrations of the compounds tested. The percentage of residual luminescent signal measured after addition of the test compound is indicative of its quenching efficiency. Whether used individually or in combination at varying concentrations, useful quench formulations should be capable of reducing luminescence from the luciferase reactions by 1,000-fold, i.e., to 0.1% of the starting luminescent emission.
Renilla luciferase reactions were performed by adding 100 μl of purified Renilla luciferase (typically diluted to 0.3 μg per ml in 75 mM HEPES, 0.02% BSA; pH 8) to a luminometer tube containing an equal volume of Renilla substrate solution (7.5 mM sodium acetate, 10 mM CDTA, 400 mM sodium sulfate, 25 μM APMBT, 15 mM sodium pyrophosphate, 2 μM coelenterazine; pH 5.5). Photon emission was quantified as previously described. The individual and combined chemical formulations summarized in Table 3 were evaluated for their ability to quench Renilla luciferase luminescence by adding 100 μl of the test solution to the luminescent reaction, then quantifying residual light emission as before.

[3] = target: T2, Renilla Luciferase; assay: Compatibility of BLA and BLQ reagent chemicals with the luminescent reaction of Renilla luciferase (Table 4); assay type: biochemical
Source text: Implicit to the concept of an integrated (i.e., sequential-measurement) dual-enzyme reporter assay is the necessity to efficiently quench luminescence from the first reporter enzyme such that the activity of the second luminescent reporter is not inhibited. Therefore a quench reagent is required that is extremely potent in quenching luminescence from the firefly reaction but can exist as a passive component in the subsequent luminesces reaction catalyzed by Renilla luciferase. Selected chemical components of Beetle Luciferase Activation (BLA) Reagent, and chemicals identified in Table 1 as candidate Beetle Luciferase Quench (BLQ) Reagents, were further evaluated to assess any inhibitory interaction they may have with the luminescent reaction catalyzed by Renilla luciferase. Table 4 summarizes the affect of these selected chemicals on the luminescent activity of Renilla luciferase. Because of its potent inhibitory affect on the firefly reaction, sodium pyrophosphate (Na4 PPi) was tested first. 100 μl Mathews' Buffer supplemented with 2 μM benzyl-coelenterazine and 15 mM Na4 PPi was dispensed into a luminometer tube containing approximately 3 ng of purified Renilla luciferase in 100 μl Mathews' Buffer, and luminescence was quantified. […]

[4] = target: T1, Firefly Luciferase; assay: biochemical; details: read-out: Percent (%) Residual Firefly Luciferase Activity
Procedure: Assays were performed using a cell extract prepared from CHO cells expressing firefly luciferase (described in detail below) and further supplemented with purified Renilla luciferase (approximately 0.3 μg/ml). Thus, the prepared extract simulates the experimental condition in which a single cell population is induced to simultaneously express two distinct luciferase reporter enzymes. Reactions to determine Renilla luciferase activity were conducted by first dispensing 10 μl of extract into a luminometer tube containing 100 μl BLA Reagent (75 mM HEPES, 4 mM MgSO4, 20 mM DTT, 100 μM EDTA, 530 μM ATP, 270 μM CoA, 470 μM beetle luciferin: pH 8.0), then adding 100 μl of one of the various BLQRLA test reagents. The 100% control value for Reporter #1, the firefly luciferase-mediated luminescent reaction, was determined by quantifying light emission from said reaction prior to addition of the designated BLQRLA Reagent. The 100% control value for Reporter #2, the Renilla luciferase-mediated luminescent reaction, was determined using the dual-reporter assay format in which
control BLQRLA Reagent (7.5 mM acetic acid, 15 mM Na4 PPi, 400 mM Na2 SO4, 2 μM coelenterazine; pH 5.0) was added to the firefly luciferase reaction in a 1:1 volume ratio.

[5] = read-out: Percent (%) Residual Firefly Luciferase Activity
[6] = assay concentration 0.33% (v/v)

T1 sequence (P08659 whole entry N50D/N119G/S548I/K549A/L550V): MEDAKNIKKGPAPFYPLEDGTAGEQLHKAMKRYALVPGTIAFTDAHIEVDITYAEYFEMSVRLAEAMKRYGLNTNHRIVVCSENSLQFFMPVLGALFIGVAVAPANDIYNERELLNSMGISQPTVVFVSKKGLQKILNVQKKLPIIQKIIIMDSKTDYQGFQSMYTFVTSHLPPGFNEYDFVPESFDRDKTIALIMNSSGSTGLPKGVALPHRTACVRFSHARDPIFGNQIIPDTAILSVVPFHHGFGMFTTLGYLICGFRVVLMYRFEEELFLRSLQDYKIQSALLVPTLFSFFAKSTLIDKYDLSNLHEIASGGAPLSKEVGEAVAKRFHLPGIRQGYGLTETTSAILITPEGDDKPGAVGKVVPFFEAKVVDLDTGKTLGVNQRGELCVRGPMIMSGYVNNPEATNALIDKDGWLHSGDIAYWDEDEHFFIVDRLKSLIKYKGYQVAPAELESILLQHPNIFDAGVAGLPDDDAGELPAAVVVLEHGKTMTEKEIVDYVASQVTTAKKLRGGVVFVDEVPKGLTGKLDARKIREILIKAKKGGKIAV

Nc1ncnc2c1ncn2[C@@H](CO)O[C@@H](CO)COP(=O)(O)OP(=O)(O)OP(=O)(O)O [or-ATP, Adenosine 5'-Triphosphate 2',3'-acyclic dialcohol, Periodate Oxidized, Borohydride Reduced]
remaining activity at 7600 µM [1, 5]: 0.78%

O=S(=O)([O-])[O-].[Na+].[Na+] [Na2 SO4, sodium sulfate]
Percent (%) Residual Firefly Luciferase Activity ([1]; assay concentration 400 mM): 10%

Oc1ccccc1-c1nc2ccccc2s1 [HPBT, 2(O-Hydroxyphenyl)benzothiazole]
remaining activity at 30 µM [1, 5]: 44%

[I-].[Na+] [NaI, sodium iodide]
Percent (%) Residual Firefly Luciferase Activity ([1]; assay concentration 400 mM): 0.078%
Percent (%) Residual Renilla Luciferase Activity ([2]; assay concentration 330 mM): 5.9%

CCCCCCCCCCCCOS(=O)(=O)[O-].[Na+] [SDS, Sodium Dodecyl Sulfate]
remaining activity at 0.3 % [1, 5]: 0.079%
remaining activity at 0.33 % ([2]; assay concentration 0.33% (w/v), read-out: Percent (%) Residual Renilla Luciferase Activity): 0.00029%

O=C(O)c1csc(-c2nc3ccc(O)cc3s2)n1 [Dehydroluciferin, 2-(6'-Hydroxy-2'-benzothiazolyl)-thiazole-4-carboxylic acid]
Percent (%) Residual Firefly Luciferase Activity ([1]; assay concentration: Saturating): 0.064%

Tween ®20
Percent (%) Residual Renilla Luciferase Activity [2, 6]: 3.4%

Cc1ccc2nc(-c3ccc(N)cc3)sc2c1 [APMBT, 2-(4-aminophenyl)-6-methylbenzothiazole]
remaining activity at 7.6 µM [1, 5]: 0.33%

CCCCO [n-Butanol, n-butanol]
remaining activity at 1.67 % ([2]; assay concentration 1.67% (v/v), read-out: Percent (%) Residual Renilla Luciferase Activity): 4.5%

O=C(O)CN(CCN(CC(=O)O)CC(=O)O)CC(=O)O [EDTA, Ethylenediaminetetraacetic acid]
remaining activity at 22700 µM [1, 5]: 0.13%

CCCCCCCCCCP(C)(C)=O [APO-10, Dimethyldecylphosphine Oxide]
remaining activity at 1 % [1, 5]: 1.9%

O=C(O)CN(CC(=O)O)[C@@H]1CCCC[C@H]1N(CC(=O)O)CC(=O)O (relative stereo) [CDTA, trans-1,2,-Diaminocyclohexane-N,N,N',N'-tetraacetic acid]
remaining activity at 15400 µM [1, 5]: 0.1%

O=[N+]([O-])[O-].[Na+] [NaNO3]
Percent (%) Residual Firefly Luciferase Activity ([1]; assay concentration 400 mM): 2.1%

O=P([O-])([O-])OP(=O)([O-])[O-].[Na+].[Na+].[Na+].[Na+] [Na4 PPi, Tetrasodium Pyrophosphate]
remaining activity at 31000 µM [1, 5]: 0.12%
inhibitory effect on the luminescent reaction catalyzed by Renilla luciferase ([3]; Mathews' Buffer with 15 mM Na4 PPi added 1:1, compared to control lacking sodium pyrophosphate): no inhibitory affect
activity at 7500 µM ([3]; assay concentration 7.5 mM, control = 100%, read-out: Percent (%) Renilla Luciferase Activity): 102%
remaining activity at 7500 µM [4]: 1%

c1ccc2scnc2c1 [BT, Benzothiazole]
remaining activity at 3000 µM [1, 5]: 2.3%

[Cl-].[Na+] [NaCl]
Percent (%) Residual Firefly Luciferase Activity ([1]; assay concentration 400 mM): 8.3%

O=C(O)CC(O)(CC(=O)O)C(=O)O [Citric Acid, pH 3, citric acid]
remaining activity at 6670 µM ([2]; assay concentration 6.67 mM, read-out: Percent (%) Residual Renilla Luciferase Activity): 5.3%

c1ccc(-c2nc3ccccc3s2)cc1 [PBT, 2-Phenylbenzothiazole]
remaining activity at 150 µM ([1]; assay concentration 0.15 mM, read-out: Percent (%) Residual Firefly Luciferase Activity): 7.5%

Triton ® X-100
Percent (%) Residual Renilla Luciferase Activity [2, 6]: 3.1%

O=P([O-])([O-])O.[K+].[K+] [K2 HPO4]
Percent (%) Residual Firefly Luciferase Activity ([1]; assay concentration 190 mM): 8.3%

CC(C)O [iso-Propanol, iso-propanol]
remaining activity at 14.4 % [1, 5]: 2.3%
